Experimental data taken from patent publication US11046680B1, “Heteroaryl-substituted triazoles as APJ receptor agonists” (priority 2016, dated 2021).

Each compound was assayed against human APJ receptor (Homo sapiens (Human), UniProt P35414) (assay: biochemical). Settings: [35S]GTPγS binding, CHO membranes expressing human APJ receptor; read-out: Activity hAPJ SPA EC50 IP.
Chain of human APJ receptor (P35414 whole entry): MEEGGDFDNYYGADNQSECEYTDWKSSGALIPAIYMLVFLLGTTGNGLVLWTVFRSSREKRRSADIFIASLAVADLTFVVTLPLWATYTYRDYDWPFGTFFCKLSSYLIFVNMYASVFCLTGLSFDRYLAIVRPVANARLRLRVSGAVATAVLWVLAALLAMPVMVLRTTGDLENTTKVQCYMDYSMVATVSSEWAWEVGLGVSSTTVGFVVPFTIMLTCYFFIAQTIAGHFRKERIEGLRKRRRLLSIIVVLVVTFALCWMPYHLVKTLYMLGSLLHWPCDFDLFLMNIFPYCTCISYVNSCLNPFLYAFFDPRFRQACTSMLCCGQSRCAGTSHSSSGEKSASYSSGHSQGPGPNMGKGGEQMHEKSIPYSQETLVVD
Assay type: biochemical
Procedure, shortened: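 GTPγS binding on membranes from CHO cells stably expressing FLAG-tagged human APJ, with optimized GDP, MgCl2 and NaCl; incubated 90 min at RT before imaging read-out.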
Cc1cnc([C@@H](C)[C@H](C)S(=O)(=O)Nc2nnc(-c3ccn(C)n3)n2-c2c(F)cccc2F)cn1 [Example 231.0, (2S,3R)-N-(4-(2,6-difluorophenyl)-5-(1-methyl-1H-pyrazol-3-yl)-4H-1,2,4-triazol-3-yl)-3-(5-methyl-2-pyrazinyl)-2-butanesulfonamide] showed an EC50 of 46 nM. In the case of CO[C@H](c1cnc(C)cn1)[C@H](C)S(=O)(=O)Nc1nnc(-c2ccn(C)n2)n1-c1c(F)cccc1F [Example 232.0, (1R,2S)-N-(4-(2,6-difluorophenyl)-5-(1-methyl-1H-pyrazol-3-yl)-4H-1,2,4-triazol-3-yl)-1-methoxy-1-(5-methyl-2-pyrazinyl)-2-propanesulfonamide], the EC50 is reported as 54 nM. In the case of CO[C@H](c1ncc(C)cn1)[C@H](C)S(=O)(=O)Nc1nnc(-c2ccn(C)n2)n1-c1c(F)cccc1F [Example 233.0, (1R,2S)-N-(4-(2,6-difluorophenyl)-5-(1-methyl-1H-pyrazol-3-yl)-4H-1,2,4-triazol-3-yl)-1-methoxy-1-(5-methyl-2-pyrimidinyl)-2-propanesulfonamide], the EC50 is reported as 17 nM. COc1ccccc1-n1c(NS(=O)(=O)Cc2ccc(Cl)cc2)nnc1-c1cccs1 [Example 234.0, 1-(4-chlorophenyl)-N-(4-(2-methoxyphenyl)-5-(2-thiophenyl)-4H-1,2,4-triazol-3-yl)methanesulfonamide] showed an EC50 of 340 nM. With COc1ccccc1-n1c(NS(=O)(=O)Cc2ccc(Cl)cc2)nnc1-c1ccc(F)s1 [Example 235.0, 1-(4-chlorophenyl)-N-(5-(5-fluoro-2-thiophenyl)-4-(2-methoxyphenyl)-4H-1,2,4-triazol-3-yl)methanesulfonamide] the EC50 was over 12500 nM. Work on COc1ccccc1-n1c(NS(=O)(=O)CCc2ccc(Cl)cc2)nnc1-c1cccs1 [Example 236.0, 2-(4-chlorophenyl)-N-(4-(2-methoxyphenyl)-5-(thiophen-2-yl)-4H-1,2,4-triazol-3-yl)ethanesulfonamide] yielded an EC50 of 120 nM. O=S(=O)(Cc1ccc(Cl)cc1)Nc1nnc(-c2cccs2)n1-c1ccccc1OC(F)F [Example 237.0, 1-(4-chlorophenyl)-N-(4-(2-(difluoromethoxy)phenyl)-5-(2-thiophenyl)-4H-1,2,4-triazol-3-yl)methanesulfonamide] gave an EC50 of over 12500 nM. Compound COc1ccccc1-n1c(NS(=O)(=O)CCc2ccccc2)nnc1-c1cccs1 [Example 238.0, N-(4-(2-methoxyphenyl)-5-(2-thiophenyl)-4H-1,2,4-triazol-3-yl)-2-phenylethanesulfonamide] has an EC50 of 226 nM. With COc1ccccc1-n1c(NS(=O)(=O)CCc2ccc(Cl)cc2)nnc1-c1ccc(F)s1 [Example 239.0, 2-(4-chlorophenyl)-N-(5-(5-fluorothiophen-2-yl)-4-(2-methoxyphenyl)-4H-1,2,4-triazol-3-yl)ethanesulfonamide] the EC50 was 210 nM. O=S(=O)(CCc1ccc(Cl)cc1)Nc1nnc(-c2cccs2)n1-c1ccccc1OC(F)F [Example 240.0, 2-(4-chlorophenyl)-N-(4-(2-(difluoromethoxy)phenyl)-5-(thiophen-2-yl)-4H-1,2,4-triazol-3-yl)ethanesulfonamide] showed an EC50 of 1310 nM. O=S(=O)(CCc1ccc(Cl)cc1)Nc1nnc(-c2ccc(F)s2)n1-c1ccccc1OC(F)F [Example 244.0, 2-(4-chlorophenyl)-N-(4-(2-(difluoromethoxy)phenyl)-5-(5-fluoro-2-thiophenyl)-4H-1,2,4-triazol-3-yl)ethanesulfonamide] showed an EC50 of 21 nM. In the case of COc1ccc(C(=O)O)cc1-n1c(NS(=O)(=O)CCc2ccc(Cl)cc2)nnc1-c1cccs1 [Example 245.0, 3-(3-(2-(4-chlorophenyl)ethylsulfonamido)-5-(thiophen-2-yl)-4H-1,2,4-triazol-4-yl)-4-methoxybenzoic acid], the EC50 is reported as 210 nM. O=S(=O)(CCc1ccccc1)Nc1nnc(-c2ccc(F)s2)n1-c1ccccc1OC(F)F [Example 246.0, N-(4-(2-(difluoromethoxy)phenyl)-5-(5-fluoro-2-thiophenyl)-4H-1,2,4-triazol-3-yl)-2-phenylethanesulfonamide] gave an EC50 of 39 nM. COc1ccc(C#N)cc1-n1c(NS(=O)(=O)CCc2ccc(Cl)cc2)nnc1-c1cccs1 [Example 247.0, 2-(4-chlorophenyl)-N-(4-(5-cyano-2-methoxyphenyl)-5-(thiophen-2-yl)-4H-1,2,4-triazol-3-yl)ethanesulfonamide] showed an EC50 of 166 nM. In the case of COc1ccc(NCCO)cc1-n1c(NS(=O)(=O)CCc2ccc(Cl)cc2)nnc1-c1cccs1 [Example 251.0, 2-(4-chlorophenyl)-N-(4-(5-((2-hydroxyethyl)amino)-2-methoxyphenyl)-5-(2-thiophenyl)-4H-1,2,4-triazol-3-yl)ethanesulfonamide], the EC50 is reported as 460 nM. With COc1ccc(N(C)C)cc1-n1c(NS(=O)(=O)CCc2ccc(Cl)cc2)nnc1-c1cccs1 [Example 252.0, 2-(4-chlorophenyl)-N-(4-(5-(dimethylamino)-2-methoxyphenyl)-5-(2-thiophenyl)-4H-1,2,4-triazol-3-yl)ethanesulfonamide] the EC50 was 11 nM. CCS(=O)(=O)Nc1nnc(-c2ccn(C)n2)n1-c1c(OC)cccc1OC [Example 267.0, N-(4-(2,6-dimethoxyphenyl)-5-(1-methyl-1H-pyrazol-3-yl)-4H-1,2,4-triazol-3-yl)ethanesulfonamide] was tested, and the EC50 was 82 nM. Work on COc1cccc(OC)c1-n1c(NS(=O)(=O)[C@@H](C)[C@H](C)c2ncc(F)cn2)nnc1-c1cc(C)[nH]n1 [Example 268.0, (2S,3R)-N-(4-(2,6-dimethoxyphenyl)-5-(5-methyl-1H-pyrazol-3-yl)-4H-1,2,4-triazol-3-yl)-3-(5-fluoro-2-pyrimidinyl)-2-butanesulfonamide] yielded an EC50 of 0.68 nM. COc1ccccc1-n1c(NS(=O)(=O)[C@@H](C)[C@H](C)c2ncc(F)cn2)nnc1-c1ccn(C)n1 [Example 269.0, (2S,3R)-3-(5-fluoro-2-pyrimidinyl)-N-(4-(2-methoxyphenyl)-5-(1-methyl-1H-pyrazol-3-yl)-4H-1,2,4-triazol-3-yl)-2-butanesulfonamide] gave an EC50 of 8.7 nM. Compound COc1cccc(OC)c1-n1c(NS(=O)(=O)[C@H](C)[C@@H](C)c2cnc(C)cn2)nnc1-c1ccn(C)n1 [Example 281.0, (2R,3S)-N-(4-(2,6-dimethoxyphenyl)-5-(1-methyl-1H-pyrazol-3-yl)-4H-1,2,4-triazol-3-yl)-3-(5-methyl-2-pyrazinyl)-2-butanesulfonamide] has an EC50 of 84 nM. COc1cnc([C@@H](C)[C@H](C)S(=O)(=O)Nc2nnc(-c3ccn(C)n3)n2-c2c(OC)cccc2OC)cn1 [Example 287.0, (2S,3R)-N-(4-(2,6-dimethoxyphenyl)-5-(1-methyl-1H-pyrazol-3-yl)-4H-1,2,4-triazol-3-yl)-3-(5-methoxy-2-pyrazinyl)-2-butanesulfonamide] was tested, and the EC50 was 0.42 nM. In the case of COc1cnc([C@@H](C)[C@H](C)S(=O)(=O)Nc2nnc(-c3ccn(C)n3)n2-c2c(OC)ncnc2OC)cn1 [Example 292.0, (2S,3R)-N-(4-(4,6-dimethoxy-5-pyrimidinyl)-5-(1-methyl-1H-pyrazol-3-yl)-4H-1,2,4-triazol-3-yl)-3-(5-methoxy-2-pyrazinyl)-2-butanesulfonamide], the EC50 is reported as 1.2 nM. For COc1ncnc(OC)c1-n1c(NS(=O)(=O)[C@@H](C)[C@H](C)c2ncc(Cl)cn2)nnc1-c1ccn(C)n1 [Example 294.0, (2S,3R)-3-(5-chloro-2-pyrimidinyl)-N-(4-(4,6-dimethoxy-5-pyrimidinyl)-5-(1-methyl-1H-pyrazol-3-yl)-4H-1,2,4-triazol-3-yl)-2-butanesulfonamide], the EC50 was 0.49 nM.
